Laboratory results taken from article PMC7756341, “Liposomal FRET Assay Identifies Potent Drug‐Like Inhibitors of the Ceramide Transport Protein (CERT)” (Chemistry (Weinheim an Der Bergstrasse, Germany), 2020).

Target: T1, CERT (Homo sapiens, UniProt Q9Y5P4)
T1 construct: made in house; host or cells: E. coli BL21 (DE3), pET-28a(+)
T1 sequence (Q9Y5P4 1-598 isoform Q9Y5P4-2): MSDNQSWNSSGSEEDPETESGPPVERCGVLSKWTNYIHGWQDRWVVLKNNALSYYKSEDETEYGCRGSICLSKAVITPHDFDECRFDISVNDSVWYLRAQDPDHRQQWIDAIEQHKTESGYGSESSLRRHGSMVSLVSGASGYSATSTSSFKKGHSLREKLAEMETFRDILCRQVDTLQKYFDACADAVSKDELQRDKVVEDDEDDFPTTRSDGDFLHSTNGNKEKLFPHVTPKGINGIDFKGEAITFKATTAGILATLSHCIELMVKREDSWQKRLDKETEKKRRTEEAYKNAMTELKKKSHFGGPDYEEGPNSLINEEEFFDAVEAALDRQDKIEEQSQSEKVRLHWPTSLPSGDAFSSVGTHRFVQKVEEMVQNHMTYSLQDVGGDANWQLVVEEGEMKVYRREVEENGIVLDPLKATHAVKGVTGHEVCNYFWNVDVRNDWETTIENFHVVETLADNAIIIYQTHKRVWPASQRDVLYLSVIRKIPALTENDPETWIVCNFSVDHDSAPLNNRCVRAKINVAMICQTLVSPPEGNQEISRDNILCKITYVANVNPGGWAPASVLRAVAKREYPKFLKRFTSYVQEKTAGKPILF
Assay: NR-ceramide fluorescence competition assay
Assay type: binding
Conditions: 1 μM Nile red ceramide
Excerpt: Having the identified hits from CERT-transfer assay, we were interested in further understanding the relationship between the CERT-transfer inhibitory activity and CERT-binding affinity. With this goal in mind, we have developed a homogenous competitive assay based on the binding of fluorescently-labeled ceramide to CERT-protein (Fig S6). It’s well known that Nile Red is […]
than in hydrophilic one. Based on this knowledge, we have designed a fluorescently-labeled probe in which the Nile Red-tag was incorporated into the ceramide fatty acid moiety. The NR-ceramide […]
excellent signal-to-noise ratio (28-fold, Fig S7.A). Equilibration takes ~1h of incubation at 30°C.
Furthermore, this assay is a simple mix-and read format and uses only low amounts of fluorophore (1µM) and CERT-protein (12.5µg/assay).
The assay was performed in non-binding black-bottom 96-well microplate (Greiner Bio-One). To each well was added 1µL HPA12 (final concentration 2.5µM) or DMSO, followed by 98 µL of the CERT aliquot (12.5µg/well). After the mixture was incubated for 40 min at 30°C, 1µL NR-ceramide (final concentration 1µM) was added. Controls were triplicates of 10mM Tris.HCl buffer (pH 7.4, 250 mM sucrose) with 2µL DMSO, CERT aliquot (12.5µg/well) with 2µL DMSO, and 1µL NR-ceramide (final concentration 1µM) in 10mM Tris.HCl buffer (pH 7.4, 250 mM sucrose) with 1µL DMSO. The plate was then sealed with transparent Thermowell seal tape and placed in the microplate reader (LABTECH) at 30°C with shaking. The fluorescence was measured from the top over 80min (number of cycles 35, delay 70 sec) with excitation filter 540 nm and emission filter 640 nm. The competitive CERT-binding activity was calculated using the formula: Ix = I(À2-Y)/I0(À1-X), where À1 is the average of the florescence of the control of NR-ceramide in Tris.HCl buffer, X is the average of the fluorescence of the buffer alone, À2 is the fluorescence average of the assay mixture, Y is the fluorescence average of the CERT aliquot with inhibitor/DMSO (Fig […]
It is however lower than the differentiation in the transfer assay (Fig S8B).
3.2 High throughput screening for CERT-activity and Data analysis
In order to validate the performance of developed assay in high-throughput screening format, the hits from ‘confirmed-hit group’ (45 hits) were screened for their competitive CERT-binding activity. The assay was performed as mentioned in the previous sub-section 3.1. Briefly, 1µL tested compound (final concentration 1µM, 2.5µM, 5µM, 10µM) or DMSO for control, and 98 µL CERT stock solution were sequentially added into a non-binding 96-well microplate. The plate was sealed and incubated at 30°C for 40 min, before 1µL NR-ceramide (final concentration 1µM) was added.
Controls per plate were triplicates of 10mM Tris.HCl buffer (pH 7.4, 250 mM sucrose) with 2µL DMSO, CERT aliquot (12.5µg/well) with 2µL DMSO, 1µL NR-ceramide (final concentration 1µM) in 10mM Tris.HCl buffer (pH 7.4, 250 mM sucrose), and HPA12 as a reference inhibitor (final concentration of 1µM, and 2.5µM, 5µM). The plate was sealed with transparent Thermowell seal tape and the assay was allowed to proceed as described above using excitation filter 540 nm and emission filter 640 nm. The competitive CERT-binding activity was calculated using the formula: Ix = I(À2-Y)/I0(À1-X), where À1 is the average of the florescence of the control 1µL NR-ceramide in Tris.HCl buffer, X is the average of the fluorescence of the buffer alone, À2 is the average of the fluorescence of assay mixture treated with tested compound or DMSO, Y is the average of the fluorescence of CERT aliquot with inhibitor/DMSO.

| Compound | activity in the NR ceramide competition assay |
| --- | --- |
| O=C(NC1CCN(CCCCC2(C(=O)NCC(F)(F)F)c3ccccc3-c3ccccc32)CC1)c1ccccc1-c1ccc(C(F)(F)F)cc1 [8E8, lomitapide] | high activity |
| CCCCCCCCCCCC(=O)NC(CO)CC(O)c1ccccc1 (centres unmarked) [HPA-12, N-(3Hydroxy-1-hydroxymethyl-3-phenylpropyl)-dodecamide] | reverted to approximately the initial value |
| CCCC(=O)OCOC(=O)C1=C(C)NC(C)=C(C(=O)OC)C1c1cccc(Cl)c1Cl (centres unmarked) [6B11, Clevidipine butyrate] | high activity |
| Cc1cc(C2=NOC(c3cc(Cl)cc(Cl)c3)(C(F)(F)F)C2)ccc1C(=O)NCC(=O)NCC(F)(F)F (centres unmarked) [20D5, Fluralaner] | high activity |
| CC1=NN(c2ccc(C)c(C)c2)C(=O)/C1=N\Nc1cccc(-c2cccc(C(=O)O)c2)c1O [17C9, Eltrombopag] | very strong competition |
